Tested on: P12-Ichikawa
Experiment: cell viability relative to DMSO control; higher = less cytotoxic
Settings: 48 h
How it was run: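 Viability was expressed as a per-plate percentage of DMSO wells, with cell-free wells as background. Leukemia cells (NOMO1 or SEM at 500 cells/well, P12-Ichikawa at 1000 cells/well) were adapted for at least four passages in each medium and seeded in 1536-well plates (5 μl). Library compounds in DMSO were pin-dosed over an 11-point threefold series from 47 μM to 0.79 nM, and CellTiter-Glo One luminescence was read after 48 h at 37°C.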

[1] = HPLM + 10% dialyzed FBS, 0.000781 µM
[2] = HPLM + 10% dialyzed FBS, 0.00234 µM
[3] = HPLM + 10% dialyzed FBS, 0.00702 µM
[4] = HPLM + 10% dialyzed FBS, 0.0211 µM
[5] = HPLM + 10% dialyzed FBS, 0.0632 µM
[6] = HPLM + 10% dialyzed FBS, 0.19 µM
[7] = HPLM + 10% dialyzed FBS, 0.569 µM
[8] = HPLM + 10% dialyzed FBS, 1.71 µM
[9] = HPLM + 10% dialyzed FBS, 5.12 µM
[10] = HPLM + 10% dialyzed FBS, 15.4 µM
[11] = HPLM + 10% dialyzed FBS, 46.1 µM
[12] = RPMI 5 mM glucose + 10% FBS, 0.000781 µM
[13] = RPMI 5 mM glucose + 10% FBS, 0.00234 µM
[14] = RPMI 5 mM glucose + 10% FBS, 0.00702 µM
[15] = RPMI 5 mM glucose + 10% FBS, 0.0211 µM
[16] = RPMI 5 mM glucose + 10% FBS, 0.0632 µM
[17] = RPMI 5 mM glucose + 10% FBS, 0.19 µM
[18] = RPMI 5 mM glucose + 10% FBS, 0.569 µM
[19] = RPMI 5 mM glucose + 10% FBS, 1.71 µM
[20] = RPMI 5 mM glucose + 10% FBS, 5.12 µM
[21] = RPMI 5 mM glucose + 10% FBS, 15.4 µM
[22] = RPMI 5 mM glucose + 10% FBS, 46.1 µM
[23] = RPMI 5 mM glucose + 10% dialyzed FBS, 0.000781 µM
[24] = RPMI 5 mM glucose + 10% dialyzed FBS, 0.00234 µM
[25] = RPMI 5 mM glucose + 10% dialyzed FBS, 0.00702 µM
[26] = RPMI 5 mM glucose + 10% dialyzed FBS, 0.0211 µM
[27] = RPMI 5 mM glucose + 10% dialyzed FBS, 0.0632 µM
[28] = RPMI 5 mM glucose + 10% dialyzed FBS, 0.19 µM
[29] = RPMI 5 mM glucose + 10% dialyzed FBS, 0.569 µM
[30] = RPMI 5 mM glucose + 10% dialyzed FBS, 1.71 µM
[31] = RPMI 5 mM glucose + 10% dialyzed FBS, 5.12 µM
[32] = RPMI 5 mM glucose + 10% dialyzed FBS, 15.4 µM
[33] = RPMI 5 mM glucose + 10% dialyzed FBS, 46.1 µM

SMILES	cell viability [1] [%]	cell viability [2] [%]	cell viability [3] [%]	cell viability [4] [%]	cell viability [5] [%]	cell viability [6] [%]	cell viability [7] [%]	cell viability [8] [%]	cell viability [9] [%]	cell viability [10] [%]	cell viability [11] [%]	cell viability [12] [%]	cell viability [13] [%]	cell viability [14] [%]	cell viability [15] [%]	cell viability [16] [%]	cell viability [17] [%]	cell viability [18] [%]	cell viability [19] [%]	cell viability [20] [%]	cell viability [21] [%]	cell viability [22] [%]	cell viability [23] [%]	cell viability [24] [%]	cell viability [25] [%]	cell viability [26] [%]	cell viability [27] [%]	cell viability [28] [%]	cell viability [29] [%]	cell viability [30] [%]	cell viability [31] [%]	cell viability [32] [%]	cell viability [33] [%]
CN1C2=CC(=O)/C(=N/NC(N)=O)C=C2CC1S(=O)(=O)[O-].[Na+] (stereo not given)	105	112	112	112	108	113	115	115	110	112	112	103	112	108	112	109	118	118	115	113	112	106	105	108	105	108	111	113	123	112	110	117	110
Oc1cc2c(cc1O)C1c3ccc(O)c(O)c3OCC1(O)C2 (stereo not given)	96.7	106	108	112	103	113	95.5	118	102	111	112	104	96.6	102	101	101	103	102	110	118	109	108	97.5	93.8	103	102	98.2	107	106	100	105	104	104
CCCC1=N[N](C)C2=C1\N=C(/NC2=O)C3=CC(=CC=C3OCC)[S+]([O-])(=O)N4CCN(C)CC4	82.3	92.6	89.5	88.6	90.7	89.5	88.2	80.4	86.5	84	50.7	81.4	87.3	89.2	80.9	77.5	87.6	84.1	82.1	85.2	82.4	20.7	81.4	84.5	80.8	86.6	82.5	86.8	79.7	85.1	77.8	79.2	33.1
CO[C@H]1/C=C/O[C@@]2(C)Oc3c(C)c(O)c4c(O)c(c(/C=N\N5CCN(C6CCCC6)CC5)c(O)c4c3C2=O)NC(=O)/C(C)=C\C=C\[C@H](C)[C@H](O)[C@@H](C)[C@@H](O)[C@@H](C)[C@H](OC(C)=O)[C@@H]1C	112	122	117	109	104	98.2	98.2	71.5	19.8	1.51	-0.607	–	87.9	93.7	78.7	70.7	70.7	68	51.8	5.83	0.395	-0.516	101	111	–	87.7	84.1	74.6	85.2	61.8	13.6	5.16	0.889
Cc1ccc(NC(=O)Nc2cc(C(F)(F)F)ccc2F)cc1Nc1ccc2c(c1)NC(=O)/C2=C\c1ccc[nH]1	122	123	133	133	131	143	139	134	128	137	70.3	–	–	–	–	–	–	–	–	–	–	–	–	–	–	–	–	–	–	–	–	–	–
COc1ccc2c(OCc3nnc4ccc(-c5ccccc5)nn34)ccnc2c1	101	116	106	104	104	97.5	104	95.9	103	103	28.1	115	117	123	122	114	106	112	117	106	124	122	123	118	105	111	105	105	106	103	106	109	77.7
O=C(O)CCNc1cc(N2CCc3ccccc3CC2)nc(-c2ccccn2)n1	119	116	115	127	114	111	117	112	114	102	88.5	122	119	113	110	114	123	123	128	104	97.8	69.2	116	130	123	126	123	109	115	121	114	102	79.6
C=CCc1cc(OC)c(O)c(C(=O)NCCO)c1	106	113	109	108	106	109	99.4	105	103	93	98.2	99.6	112	95.4	104	113	100	103	95.4	101	93.7	89.4	98.9	108	104	104	103	101	105	104	84.4	105	94.1

From the supplement of paper PMC11451515
